# Earlier results in patent EP4691467A1, “USE OF INHIBITOR SPECIFICALLY TARGETING NLRP3 INFLAMMASOME” (Sichuan Jianlin Pharmaceutical Co., Ltd, priority 2023, dated 2024).
# Assays:
# [1] = test system: ASC specks; conditions: cells pre-treated with MCC950, pro-inflammatory conditions
# [2] = test system: IL-1β
# [3] = test system: experimental autoimmune encephalomyelitis (EAE); conditions: in vivo
# [4] = test system: CAPS mouse model
# [5] = test system: IL-18; conditions: Muckle Wells syndrome
# [6] = phase II clinical trials, rheumatoid arthritis; trials suspended
compound,measurement,setting,value
CC(C)(O)c1coc(S(=O)(=O)NC(=O)Nc2c3c(cc4c2CCC4)CCC3)c1 [MCC950],formation of ASC specks,[1],inhibit
same,production of IL-1β in vivo,[2],reduce
same,severity of disease models of multiple sclerosis (EAE),[3],attenuate
same,lethality of newborn mice,[4],reduce
same,extension of lifespan,[4]; newborn mice,~20 days
same,release of IL-18 in plasma,[5],shows efficacy in inhibiting
same,hepatotoxicity,[6],excessive hepatotoxicity
